Results as given in US20160061849A1, “LIPIDOMIC BIOMARKERS” (UNITHER VIROLOGY, LLC, priority 2014, published 2016).

Assays:
obese mice = conditions: cited from earlier work
Huh7.5 cells = test: "Total lipid" fatty acid profiling (GCMS) of hepatoma cells treated with iminosugars; format: cell-based, human; conditions: uninfected state, antiviral concentrations, 4 days
Procedure: Methods for cell culture of replication-competent HCV in human hepatoma cells were essentially as described (Pollock, Nichita et al. 2010). Huh7.5 cells (Apath, LLC) were grown in DMEM supplemented with 100 U/ml penicillin, 100 μg/ml streptomycin, 2 mM L-glutamine, 1×MEM, and 10% FBS. All incubations were at 37° C./5% CO2. The effect of iminosugar treatment on cellular lipid profiles was determined for both uninfected and HCVcc-infected cells. In order to infect cells with HCV strain Jc1 (genotype 2a), Huh7.5 cells were incubated for 1 h in the presence of the virus at a multiplicity of infection (MOI)=0.02 using a viral stock of known titer. Cells were passaged for approximately 2 weeks to allow the infection to reach close to 100% of cells as determined by HCV core protein immunofluorescence, in order to avoid dilution of ‘infected’ lipidomic signatures by uninfected cells in partially infected cultures. Both HCV-infected and uninfected cells were then incubated in the presence or absence of iminosugars for 4 days, at which point they were harvested using trypsin/EDTA, washed 3 times in cold PBS, counted using trypan blue staining, and final cell pellets were resuspended in methanol:acetone (vol 1:1) prior to lipid profiling, A small volume of each sample was used for total protein estimation using the Bradford protein assay (Bio-Rad). […]

ER alpha glucosidases = conditions: cited from earlier work
PI3 kinase = conditions: cited from earlier work

Compound: OC[C@@H]1[C@@H](O)[C@H](O)[C@@H](O)CN1CCCCCOCC12CC3CC(CC(C3)C1)C2 [AMP-DNJ, N-(5-adamantane-1-yl-methoxy-pentyl)-deoxynojirimycin]
- fatty acid synthase activity (obese mice): decreases fatty acid synthase activity
- hepatic insulin sensitivity (obese mice): improves hepatic insulin sensitivity
- hepatic steatosis (obese mice): abolishes hepatic steatosis
- Mead acid component of the global fatty acid composition (Huh7.5 cells): almost doubled

Compound: CCCCN1C[C@H](O)[C@@H](O)[C@@H](O)[C@H]1CO [NB-DGJ, N—(N-butyl) deoxygalactojirimycin]
- inhibitory activity towards ER alpha glucosidases (ER alpha glucosidases): no inhibitory activity

Compound: CCCCN1C[C@H](O)[C@@H](O)[C@H](O)[C@H]1CO [NB-DNJ, N-butyl-deoxynojirimycin]
- inhibitory activity towards ER alpha glucosidases (ER alpha glucosidases): also inhibits glucosidase

Compound: CCCCC/C=C\C/C=C\C/C=C\C/C=C\CCCC(=O)O [arachidonic acid]
- activation of PI3 kinase by insulin (PI3 kinase): blocks the activation
